Data taken from PubChem BioAssay AID2060342 (Molecular Pharmacology Branch, DTP, NCI, 2025).

Tested on: 171881-019-R-J1-PDC multicell spheroid viability
Assay: Anticancer human tumor 171881-019-R-J1-PDC patient-derived invasive breast carcinoma cell line growth inhibition [IpAb]
Details: for IC50: curve of first compound; for viability, T/C: stronger effect = lower value
Excerpt: Combinatorial screen of targeted agents with ipatasertib and abemaciclib in multi-cell type tumor spheroids
A high-throughput screen of multi-cell type tumor spheroids was designed to identify active combinations of targeted small molecules and ipatasertib or abemaciclib. Complex spheroids include a stromal component modeled by human endothelial cells (HUVEC) and fibroblasts modeled by human mesenchymal stem cells (MSCs). The concentration ranges selected for each drug and investigational agent were based upon clinically achievable concentrations if the clinical Cmax of the agent was known.
Compounds. The drugs and investigational agents: ipatasertib (NSC767898), abemaciclib(NSC768073), selumetinib (NSC741078), trametinib (758246), adavosertib (NSC754352), everolimus (NSC733504), sapanisertib (NSC764658), vemurafenib (NSC761431), venetoclax (NSC766270), copanlisib (NSC809693), apelisib (NSC765974), palbociblib (NSC758247), vemurafenib (NSC761431), dabrafenib (NSC764134), ravoxertinib (NSC781343), BMS-387032 (NSC767048), sotorasib (NSC818433), talazoparib (NSC767125) and afursertib (NSC778305), were obtained from the National Cancer Institute (NCI) Developmental Therapeutics Program Chemical Repository. The FDA-approved anticancer drug set is available from the NCI Developmental Therapeutics Program. […] The stock solutions were prepared in dimethyl sulfoxide (DMSO, Sigma-Aldrich, St. Louis, MO, cat. D2650) at 800-fold the tested concentration and stored at -70 degrees C prior to their use. All drugs and investigational agents were tested over a range starting from a high concentration at or near the clinical Cmax and decreasing in half-log increments. If the clinical Cmax for an agent had not been determined, the highest concentration tested was 10 microM.
NCI60 Cell Culture. NCI60 cell lines were obtained from the NCI Developmental Therapeutics Program Tumor Repository. For each lot of cells, the Repository performed Applied Biosystems AmpFLSTR Identifiler testing with PCR amplification to confirm consistency with the published Identifier STR profile for each cell line. Cells were kept in continuous culture for no more than 20 passages. The optimal seeding densities for each of the cell lines at each time point assessed were determined prior to performing the concentration response studies. Briefly, the NCI60 human tumor lines were grown as monolayers in RPMI 1640 medium supplemented with 10% FBS and 2 mmol/L L-glutamine.
An additional 9 lines were from the NCI60 cell line panel including MDA-MB-231 breast carcinoma, MDA-MB-468 breast carcinoma, MCF7 breast carcinoma, Hs578T breast carcinoma, MALME-3M melanoma, SK-MEL-2 melanoma, SK-OV-3 ovarian carcinoma, DU-145 prostate carcinoma, PC-3 prostate carcinoma, all cell lines along with major genetic alterations are listed on Table 2. Pooled donor human umbilical vein endothelial cells (HUVEC, Lonza, cat. CC-2519) and human mesenchymal stem cells (hMSC, Lonza, cat. PT-2501) were purchased from Lonza (Walkersville, MD).
PDMR cell lines were grown in complete medium (DC medium): Dulbecco's modified Eagle's medium (DMEM)/F12 supplemented with 5% fetal bovine serum (FBS), 2 mM L-glutamine, 100 U/mL penicillin and 100 µg/ml streptomycin, 0.4 µg/ml hydrocortisone, 10 ng/ml epidermal growth factor (EGF) recombinant human protein, 24 µg/mL adenine, and 0.1 mg/mL primocin. During culture from frozen stock vials, PDMR cells were cultured in the same medium containing 10 µM Y-27632 (see Table 3). The PDCs were cultured in complete DMEM/F12 media without 10 microM Y-27632 dihydrochloride for at least two passages prior to the screen. The pooled donor HUVEC and hMSC were cultured in endothelial cell growth medium 2 (PromoCell, Heidelberg, Germany, cat. C-22011) and mesenchymal stem cell growth medium 2 (PromoCell, cat. C-28009), respectively. For all experiments, HUVEC and hMSC were used at passages </=5.
[…]
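Also: spheroids exposed to the agents for seven days before readout.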

C=CCn1c(=O)c2cnc(Nc3ccc(N4CCN(C)CC4)cc3)nc2n1-c1cccc(C(C)(C)O)n1 + CC(C)NCC(C(=O)N1CCN(c2ncnc3c2C(C)CC3O)CC1)c1ccc(Cl)cc1
IC50 (second compound 0.1 µM): 0.727 µM
IC50 (second compound 0.316 µM): 0.354 µM
IC50 (second compound 1 µM): < 0.0316 µM
IC50 (second compound 3.16 µM): < 0.0316 µM
IC50 (second compound 10 µM): < 0.0316 µM
viability, T/C (second compound 0.1 µM, first compound 0.0316 µM): 116%
viability, T/C (second compound 0.1 µM, first compound 0.1 µM): 118%
viability, T/C (second compound 0.1 µM, first compound 0.316 µM): 114%
viability, T/C (second compound 0.1 µM, first compound 1 µM): 25.6%
viability, T/C (second compound 0.1 µM, first compound 3.16 µM): 22.1%
viability, T/C (second compound 0.1 µM, first compound 10 µM): 20.3%
viability, T/C (second compound 0.316 µM, first compound 0.0316 µM): 87.3%
viability, T/C (second compound 0.316 µM, first compound 0.1 µM): 80.3%
viability, T/C (second compound 0.316 µM, first compound 0.316 µM): 54%
viability, T/C (second compound 0.316 µM, first compound 1 µM): 17.4%
viability, T/C (second compound 0.316 µM, first compound 3.16 µM): 15.6%
viability, T/C (second compound 0.316 µM, first compound 10 µM): 16.4%
viability, T/C (second compound 1 µM, first compound 0.0316 µM): 26.4%
viability, T/C (second compound 1 µM, first compound 0.1 µM): 23.8%
viability, T/C (second compound 1 µM, first compound 0.316 µM): 16.5%
viability, T/C (second compound 1 µM, first compound 1 µM): 9.22%
viability, T/C (second compound 1 µM, first compound 3.16 µM): 10.4%
viability, T/C (second compound 1 µM, first compound 10 µM): 10.4%
viability, T/C (second compound 3.16 µM, first compound 0.0316 µM): 9.36%
viability, T/C (second compound 3.16 µM, first compound 0.1 µM): 8.13%
viability, T/C (second compound 3.16 µM, first compound 0.316 µM): 6.23%
viability, T/C (second compound 3.16 µM, first compound 1 µM): 5.35%
viability, T/C (second compound 3.16 µM, first compound 3.16 µM): 7.31%
viability, T/C (second compound 3.16 µM, first compound 10 µM): 8.03%
viability, T/C (second compound 10 µM, first compound 0.0316 µM): 5.29%
viability, T/C (second compound 10 µM, first compound 0.1 µM): 4.04%
viability, T/C (second compound 10 µM, first compound 0.316 µM): 3.45%
viability, T/C (second compound 10 µM, first compound 1 µM): 4.09%
viability, T/C (second compound 10 µM, first compound 3.16 µM): 4.97%
viability, T/C (second compound 10 µM, first compound 10 µM): 4.41%

Cn1cnc2c(F)c(Nc3ccc(Br)cc3Cl)c(C(=O)NOCCO)cc21 + CC(C)NCC(C(=O)N1CCN(c2ncnc3c2C(C)CC3O)CC1)c1ccc(Cl)cc1
IC50 (second compound 0.1 µM): 0.54 µM
IC50 (second compound 0.316 µM): 0.188 µM
IC50 (second compound 1 µM): < 0.00949 µM
IC50 (second compound 3.16 µM): < 0.00949 µM
IC50 (second compound 10 µM): < 0.00949 µM
viability, T/C (second compound 0.1 µM, first compound 0.00949 µM): 122%
viability, T/C (second compound 0.1 µM, first compound 0.03 µM): 125%
viability, T/C (second compound 0.1 µM, first compound 0.0949 µM): 107%
viability, T/C (second compound 0.1 µM, first compound 0.3 µM): 75.1%
viability, T/C (second compound 0.1 µM, first compound 0.949 µM): 26.3%
viability, T/C (second compound 0.1 µM, first compound 3 µM): 8.66%
viability, T/C (second compound 0.316 µM, first compound 0.00949 µM): 72.7%
viability, T/C (second compound 0.316 µM, first compound 0.03 µM): 69.6%
viability, T/C (second compound 0.316 µM, first compound 0.0949 µM): 62.4%
viability, T/C (second compound 0.316 µM, first compound 0.3 µM): 41.9%
viability, T/C (second compound 0.316 µM, first compound 0.949 µM): 14.2%
viability, T/C (second compound 0.316 µM, first compound 3 µM): 4.26%
viability, T/C (second compound 1 µM, first compound 0.00949 µM): 24.5%
viability, T/C (second compound 1 µM, first compound 0.03 µM): 26.6%
viability, T/C (second compound 1 µM, first compound 0.0949 µM): 21.2%
viability, T/C (second compound 1 µM, first compound 0.3 µM): 13.3%
viability, T/C (second compound 1 µM, first compound 0.949 µM): 4.61%
viability, T/C (second compound 1 µM, first compound 3 µM): 1.63%
viability, T/C (second compound 3.16 µM, first compound 0.00949 µM): 8.87%
viability, T/C (second compound 3.16 µM, first compound 0.03 µM): 7.75%
viability, T/C (second compound 3.16 µM, first compound 0.0949 µM): 5.99%
viability, T/C (second compound 3.16 µM, first compound 0.3 µM): 5.01%
viability, T/C (second compound 3.16 µM, first compound 0.949 µM): 1.73%
viability, T/C (second compound 3.16 µM, first compound 3 µM): 0.77%
viability, T/C (second compound 10 µM, first compound 0.00949 µM): 5.26%
viability, T/C (second compound 10 µM, first compound 0.03 µM): 3.72%
viability, T/C (second compound 10 µM, first compound 0.0949 µM): 3.22%
viability, T/C (second compound 10 µM, first compound 0.3 µM): 1.9%
viability, T/C (second compound 10 µM, first compound 0.949 µM): 1.16%
viability, T/C (second compound 10 µM, first compound 3 µM): 0.44%
